# From patent US9474757B2, “Methods for treating cancer using TOR kinase inhibitor combination therapy” (Signal Pharmaceuticals, LLC, priority 2013, dated 2016)
# “Also recorded” adds a separate entry of the source.
# System: WSU-DLCL2 xenograft
# Experiment: DLBCL xenograft model (WSU-DLCL2)
# Type: in vivo, SCID mice
# Settings: combination study
# Description: Severe combined immunodeficiency (SCID) mice were implanted with human DLBCL cell line (WSU-DLCL2) into the flank. Treatment of compounds started between Day 11 and Day 14 after cell inoculation. Randomized groups of mice (n=9 to 10/group) were treated with the single agents (Compound 1, Compound A or Compound AA) or the combination of Compound 1/Compound A, Compound A/Compound AA, or Compound 1/Compound AA. Compounds were administered orally on a once daily (Compound 1 and Compound A) or twice daily […] schedule for 21 days. The positive control consisted of CHOP therapy (combination of cyclophosphamide, doxorubicin, vincristine and prednisone). Compound 1 and Compound A were formulated in CMC-Tween (carboxymethylcellulose/Tween 80/deionized water). Compound AA was suspended in DSP (dimethylsulphoxide/solutol/phosphate buffered saline).
# Initial studies were conducted in order to determine the antitumor activity of Compound 1 and to identify a dose level for the combination studies. In the WSU-DLCL2 xenograft model, Compound 1 inhibited tumor growth in a dose-dependent fashion. […] In a subsequent combination study, Compound 1 was dosed at 10 mg/kg, once daily (QD). Compound A and Compound AA were dosed at 30 mg/kg (QD) and 50 mg/kg (BID), respectively.
smiles,measurement,setting,value
"C=CC(=O)Nc1cccc(Nc2nc(Nc3ccc(OCCOC)cc3)ncc2F)c1 [Compound AA, N-(3-(5-fluoro-2-(4-(2-methoxyethoxy)phenylamino)pyrimidin-4-ylamino)phenyl)acrylamide]",antitumor activity,"Day 34, Compound 1 10 mg/kg QD, Compound A 30 mg/kg QD, Compound AA 50 mg/kg BID, combinations compared with single agent",No significant antitumor activity; also recorded: inactive
same,body weight loss,single agents or in combination,No significant body weight loss
